Experimental data reported in patent publication US12509459B2, “Inhibitors of NLRP3 inflammasome” (BioAge Labs, Inc., priority 2024, dated 2025).

Biological target: NLRP3 (Homo sapiens, UniProt Q96P20)
Assay: THP-1 cell-based NLRP3 activation assay
Parameters: endogenous in cells; host or cells: THP-1 cells (PMA-differentiated, LPS-primed, nigericin-stimulated)
Details: PMA-differentiated THP-1 cells, LPS 100 ng/mL then 10 μM nigericin
Method in brief: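 THP-1 cells were PMA-differentiated (20 nM, 24 h or 500 nM, 3 h), primed with 100 ng/mL LPS for 3 h, then given compound in Opti-Mem for 30 min before 10 μM nigericin for 1 h. Supernatants assayed; viability of adherent cells by CellTiter-Glo.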

NLRP3, sequence (Q96P20 whole entry): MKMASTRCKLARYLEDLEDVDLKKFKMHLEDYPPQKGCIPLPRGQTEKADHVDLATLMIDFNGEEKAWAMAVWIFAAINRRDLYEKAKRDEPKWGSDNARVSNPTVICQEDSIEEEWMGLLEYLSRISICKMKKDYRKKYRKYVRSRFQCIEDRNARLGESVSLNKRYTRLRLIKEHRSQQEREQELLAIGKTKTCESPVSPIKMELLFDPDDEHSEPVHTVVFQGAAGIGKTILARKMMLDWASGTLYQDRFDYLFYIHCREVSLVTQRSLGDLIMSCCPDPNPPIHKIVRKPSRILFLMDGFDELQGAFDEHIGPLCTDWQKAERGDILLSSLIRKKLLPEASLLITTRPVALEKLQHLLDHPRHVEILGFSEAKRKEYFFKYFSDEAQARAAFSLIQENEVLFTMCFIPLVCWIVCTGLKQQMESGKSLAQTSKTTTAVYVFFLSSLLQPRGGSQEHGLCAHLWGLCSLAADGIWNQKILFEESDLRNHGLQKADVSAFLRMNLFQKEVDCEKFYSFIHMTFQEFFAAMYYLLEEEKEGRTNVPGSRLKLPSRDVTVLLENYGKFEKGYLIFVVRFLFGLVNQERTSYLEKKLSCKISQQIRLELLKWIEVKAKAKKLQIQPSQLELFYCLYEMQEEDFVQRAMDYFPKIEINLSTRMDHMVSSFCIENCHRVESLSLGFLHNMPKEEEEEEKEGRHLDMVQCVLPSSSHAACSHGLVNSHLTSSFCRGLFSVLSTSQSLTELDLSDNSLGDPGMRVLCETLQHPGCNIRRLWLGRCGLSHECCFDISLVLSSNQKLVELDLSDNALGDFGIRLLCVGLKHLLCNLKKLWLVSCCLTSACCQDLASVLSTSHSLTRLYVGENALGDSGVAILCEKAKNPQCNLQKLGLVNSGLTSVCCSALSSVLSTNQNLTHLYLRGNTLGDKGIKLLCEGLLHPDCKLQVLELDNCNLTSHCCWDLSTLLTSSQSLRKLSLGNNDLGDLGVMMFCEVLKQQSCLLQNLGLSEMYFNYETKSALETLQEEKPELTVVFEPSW

Row | Structure (SMILES) | IC50
1 | CCOc1cc(C(=O)N(Cc2cncc3cn[nH]c23)C2CC(N(C)C)C2)ccc1-c1ccccc1 (centres unmarked) [Compound 243] | 1000 to 15000 nM
2 | CCOc1cc(C(=O)N(Cc2cncc3cn[nH]c23)[C@H]2C[C@@H](N(C)C)C2)ccc1-c1cccc(F)c1 [Compound 244] | < 100 nM
3 | CCOc1cc(C(=O)N(Cc2cncc3cn[nH]c23)[C@H]2C[C@@H](N(C)C)C2)ccc1-c1ccccc1 [Compound 245] | < 100 nM
4 | CCOc1cc(C(=O)N(C)C(CN2CC(O)C2)c2cncc3cn[nH]c23)ccc1-c1cccc(F)c1 (centres unmarked) [Compound 246] | < 100 nM
5 | CCOc1cc(C(=O)N(C)C(CN2CCC(O)C2)c2cncc3cn[nH]c23)ccc1-c1cccc(F)c1 (centres unmarked) [Compound 247] | < 100 nM
6 | CCOc1cc(C(=O)N(Cc2cncc3cn[nH]c23)[C@H]2C[C@@H](CN)C2)ccc1-c1cccc(F)c1 [Compound 248] | < 100 nM
7 | CCOc1cc(C(=O)N(Cc2cncc3cn[nH]c23)[C@H]2C[C@@H](CN(C)C)C2)ccc1-c1cccc(F)c1 [Compound 249] | < 100 nM
8 | CCOc1cc(C(=O)N(Cc2cccc3cn[nH]c23)[C@H]2C[C@@H](N)C2)ccc1-c1cccc(F)c1 [Compound 250] | < 100 nM
9 | CCOc1cc(C(=O)N(Cc2cccc3cn[nH]c23)[C@H]2C[C@@H](N(C)C)C2)ccc1-c1cccc(F)c1 [Compound 251] | < 100 nM
10 | CCOc1cc(C(=O)N(Cc2cccc3cn[nH]c23)[C@H]2C[C@@H](NC)C2)ccc1-c1cccc(F)c1 [Compound 252] | < 100 nM
11 | CCOc1cc(C(=O)N(Cc2cncc3cn[nH]c23)[C@H]2C[C@@H](N(C)C)C2)ccc1-c1cccc(Cl)c1 [Compound 253] | < 100 nM
12 | CCOc1cc(C(=O)N(C)[C@H](CC[N+](C)([O-])CC)c2cncc3cn[nH]c23)ccc1-c1cccc(Cl)c1 (some centres unmarked) [Compound 254] | < 100 nM
13 | CCOc1cc(C(=O)N(C)[C@H](CC[N+]([O-])(CC)CC)c2cncc3cn[nH]c23)ccc1-c1cccc(Cl)c1 [Compound 255] | < 100 nM
14 | CCOc1cc(C(=O)N(C)[C@H](CN(C)C)c2cccc3cn[nH]c23)ccc1-c1cccc(F)c1 [Compound 256] | 100 to 500 nM
15 | CCOc1cc(C(=O)N(C)[C@@H](CN(C)C)c2cccc3cn[nH]c23)ccc1-c1cccc(F)c1 [Compound 257] | < 100 nM
16 | CCOc1cc(C(=O)N(C)C(CN(C)CC)c2cccc3cn[nH]c23)ccc1-c1cccc(F)c1 (centres unmarked) [Compound 258] | 100 to 500 nM
17 | CCOc1cc(C(=O)N(C)[C@@H](CN(C)CC)c2cccc3cn[nH]c23)ccc1-c1cccc(F)c1 [Compound 259] | < 100 nM
18 | CCOc1cc(C(=O)N(C)[C@H](CN(CC)CC)c2cccc3cn[nH]c23)ccc1-c1cccc(F)c1 [Compound 260] | 1000 to 15000 nM
19 | CCOc1cc(C(=O)N(C)C(CN(CC)CC)c2cccc3cn[nH]c23)ccc1-c1cccc(F)c1 (centres unmarked) [Compound 261] | < 100 nM
20 | CCOc1cc(C(=O)N(C)[C@H](CCN(C)CCO)c2cncc3cn[nH]c23)ccc1-c1cccc(F)c1 [Compound 262] | < 100 nM
21 | CCOc1cc(C(=O)N(C)[C@H](CCN(C)CCOC)c2cncc3cn[nH]c23)ccc1-c1cccc(F)c1 [Compound 263] | < 100 nM
22 | CCOc1cc(C(=O)N(C)C(CN2CCC2)c2cccc3cn[nH]c23)ccc1-c1cccc(F)c1 (centres unmarked) [Compound 264] | < 100 nM
23 | CCOc1cc(C(=O)N(Cc2cccc3cn[nH]c23)[C@H]2C[C@@H](NC)C2)ccc1-c1cccc(C#N)c1 [Compound 265] | < 100 nM
24 | CCOc1cc(C(=O)N(Cc2ccc(C)c3cn[nH]c23)[C@H]2C[C@@H](NC)C2)ccc1-c1cccc(F)c1 [Compound 266] | < 100 nM

Row | Structure (SMILES) | IC50
25 | CCOc1cc(C(=O)N(C)[C@H](c2c[nH]cn2)c2cncc3cn[nH]c23)ccc1-c1cccc(F)c1 [Compound 267] | 100 to 500 nM
26 | CCOc1cc(C(=O)N(Cc2cnc(C)c3cn[nH]c23)[C@H]2C[C@@H](NC)C2)ccc1-c1cccc(Cl)c1 [Compound 277] | < 100 nM
27 | CCOc1cc(C(=O)N(Cc2cnc(C)c3cn[nH]c23)[C@H]2C[C@@H](NC)C2)ccc1-c1cccc(F)c1 [Compound 278] | < 100 nM
28 | CCOc1cc(C(=O)N(C)[C@H](CCN(C)C)c2cncc3cn[nH]c23)ccc1-c1cc(F)cc(C#N)c1 [Compound 279] | < 100 nM
29 | CCOc1cc(C(=O)N(C)[C@H](CCNC)c2cncc3cn[nH]c23)ccc1-c1cc(F)cc(C#N)c1 [Compound 280] | < 100 nM
30 | CN(C(=O)c1ccc(-c2cccc(Cl)c2)c(OC2CC2)c1)[C@H](CCN1CCC1)c1cncc2cn[nH]c12 [Compound 281] | 1000 to 15000 nM
31 | CCOc1cc(C(=O)N(C)[C@@H](c2cccc3cn[nH]c23)C2CN(C)C2)ccc1-c1cccc(Cl)c1 [Compound 282] | < 100 nM
32 | CCOc1cc(C(=O)N(C)[C@H](c2cccc3cn[nH]c23)C2CN(C)C2)ccc1-c1cccc(Cl)c1 [Compound 283] | < 100 nM
33 | CCOc1cc(C(=O)N(Cc2ccc(C)c3cn[nH]c23)[C@H]2C[C@@H](N(C)C)C2)ccc1-c1cccc(Cl)c1 [Compound 285] | < 100 nM
34 | CCOc1cc(C(=O)N(Cc2ccc(C)c3cn[nH]c23)[C@H]2C[C@@H](NC)C2)ccc1-c1cccc(Cl)c1 [Compound 286] | < 100 nM
35 | CCOc1cc(C(=O)N(Cc2cncc3cn[nH]c23)[C@H]2CC[C@@H]2N)ccc1-c1cccc(Cl)c1 [Compound 287] | 500 to 1000 nM
36 | CCOc1cc(C(=O)N(Cc2cncc3cn[nH]c23)[C@H]2CC[C@@H]2N(C)C)ccc1-c1cccc(Cl)c1 [Compound 288] | 100 to 500 nM
37 | CCOc1cc(C(=O)N(Cc2cncc3cn[nH]c23)[C@H]2C[C@@H](N)C2)ccc1-c1cccc(C#N)c1 [Compound 289] | < 100 nM
38 | CCOc1cc(C(=O)N(Cc2cncc3cn[nH]c23)[C@H]2C[C@@H](N(C)C)C2)ccc1-c1cccc(C#N)c1 [Compound 290] | < 100 nM
39 | CCOc1cc(C(=O)N(Cc2cncc3cn[nH]c23)[C@H]2C[C@@H](NC)C2)ccc1-c1cccc(C#N)c1 [Compound 291] | < 100 nM
40 | CCOc1cc(C(=O)N(Cc2cccc3cn[nH]c23)[C@H]2C[C@@H](N)C2)ccc1-c1cccc(C#N)c1 [Compound 292] | < 100 nM
41 | CCOc1cc(C(=O)N(Cc2cccc3cn[nH]c23)[C@H]2C[C@@H](N(C)C)C2)ccc1-c1cccc(C#N)c1 [Compound 293] | < 100 nM
42 | CCOc1cc(C(=O)N(Cc2cncc3cn[nH]c23)[C@H]2CC[C@@H]2N)ccc1-c1cccc(F)c1 [Compound 294] | 500 to 1000 nM
43 | CCOc1cc(C(=O)N(Cc2cncc3cn[nH]c23)[C@H]2CC[C@H]2N)ccc1-c1cccc(Cl)c1 [Compound 295] | 100 to 500 nM
44 | CCOc1cc(C(=O)N(C)[C@H](CCC2CN(C)C2)c2cccc3cn[nH]c23)ccc1-c1cccc(F)c1 [Compound 297] | 100 to 500 nM
45 | CCOc1cc(C(=O)N(C)[C@H](c2cccc3cn[nH]c23)C2CN(C)C2)ccc1-c1cccc(F)c1 [Compound 298] | < 100 nM
46 | CCOc1cc(C(=O)N(C)[C@@H](CCN)c2cnc(C)c3cn[nH]c23)ccc1C [Compound 299] | 1000 to 15000 nM
47 | CCOc1cc(C(=O)N(Cc2cncc3cn[nH]c23)[C@H]2CC[C@H]2N)ccc1-c1cccc(F)c1 [Compound 300] | 100 to 500 nM
